“Also recorded” adds a separate entry of the source.
Columns and labels:
MAX bHLHZip = MAX bHLHZip (Homo sapiens, UniProt P61244); assay: SPR binding to MAX
Protocol: The MYC SPR assay was carried out as described above with MYCbHLHZip immobilized to a level of 800–1000 RU. For kinetic binding experiments, a Langmuir 1:1 binding event was applied using the Biacore T200 Evaluation Software 2.0 (GE Healthcare) to determine association (ka) and dissociation (kd) constants of the compound and to calculate affinity (KD) by the formula; KD = kd/ka. Binding responses from equilibrium binding experiments were plotted against compound concentration and KD values were determined at 50% of the theoretical Rmax with the formula Rmax = (MW analyte/MW ligand) × immobilized ligand level on the chip (RU) × stoichiometry (1:1). Same coupling method described above was used to immobilize the control proteins. MAX was immobilized to approximately 2000 RU, MAD to 600 RU, BSA to 1000 RU, p53 to 3000 RU and BCL-XL, to 500 RU.

MYCN:MAX interaction = system: T1, MYCN:MAX interaction; assay: isPLA endogenous MYCN:MAX in SK-N-BE(2) cells; assay type: cell-based; conditions: 2.5 μM, 16 hours
T1 construct: endogenous in cells; host or cells: SK-N-BE(2)
Protocol: The isPLA assay has been described. Antibodies used are listed in Supplementary Information. Briefly, cells were grown on collagen-coated chamber slides (Falcon), and treated with 1–10 μM of compounds, respectively, for 16 hours, then washed twice with PBS and fixed in ice cold methanol for 5–15 min at room temperature. Slides were washed in PBS with 0.05% Tween 20 and incubated in blocking buffer after which isPLA was performed using the Duolink® in situ PLA kit (Sigma-Aldrich) according to the manufacturer’s protocol. DNA was stained with DAPI. Incubation with primary antibodies were performed at +4 °C overnight. Images were taken using an Axiovert 200M inverted microscope (Zeiss) and fluorescent dots were quantified using semi-automated analysis in ImageJ (http://imagej.net) and averaged to number of dots per cell.

MYCN and MAX proteins = assay: Western blot of MYCN and MAX in SK-N-DZ and Kelly cells; assay type: cell-based; conditions: 2.5 µM, 17 hours
Protocol: These assays were performed essentially as described in[67],[68]. […] C) MST of labeled MYC (approximately 200 nM) titrated with MYCMI-6 as indicated. Data are shown as mean ± standard deviation of 5 biological repeats. Supplemental Figure S5. Characterization of the binding of MYCMI-6 and other MYC:MAX inhibitory compounds on MYC and different control proteins by surface plasmon resonance (SPR). All sensorgrams are reference surface subtracted. A) SPR assay of MYCMI-6 injected over immobilized MYC in an equilibrium binding experiment where the theoretical Rmax is 23 RU. B) SPR assay of KJ-Pyr-9 injected over immobilized MYC. Theoretical Rmax is 29 RU. C) Sensorgram of MAX SPR assay. MYCMI-6 was injected at various concentrations over immobilized MAX bHLHZip (theoretical Rmax of 24 RU). D) Sensorgram of MAD SPR assay. MYCMI-6 was injected at various concentrations over immobilized GST-MAD bHLHZip (theoretical Rmax of 24 RU). E) Sensorgram of the BCL-XL SPR assay. MYCMI-6 was injected at various concentrations over immobilized BCL-XL (theoretical Rmax of 14 RU). F) Sensorgram of the BSA SPR assay. MYCMI-6 was injected at various concentrations over immobilized BSA (theoretical Rmax of 5 RU). Supplemental Figure S6. Expression of MYCN and MAX proteins after MYCMI-6 treatment in MYCN-amplified neuroblastoma cells. […]

[1] = system: Burkitt's lymphoma cell lines Mutu, Daudi and ST486; assay: Growth of Burkitt's lymphoma cell lines; assay type: cell-based
Protocol: Cell proliferation assays. Cell growth and viability was estimated in triplicates with WST-1 (Roche) or Resazurin sodium salt (Sigma-Aldrich) assays in medium at 37°C and 5% CO 2 for 2 hours after which absorbance or fluorescence, respectively, was measured with an Omega Fluostar (BMG Labtech) in a 96 well plate format. Cell counting was done in 96 well plates with CellTracker Green (ThermoFisher) for 30 min in the incubator, after which DAPI was added for 5 min. Images were taken in the green (FITC) and blue (DAPI) channels using a fluorescence microscope (ImageXpress Micro, Molecular Devices). […]
0.7% agarose. […]

hTERT = system: hTERT; parameters: method as in PMID 23173022; conditions: found artificial, unspecific DNA binding; cited from earlier work
HDM2 = system: HDM2; parameters: method as in PMID 19202599; conditions: cited from earlier work

Chain of MAX bHLHZip (P61244 23-102 limits assumed): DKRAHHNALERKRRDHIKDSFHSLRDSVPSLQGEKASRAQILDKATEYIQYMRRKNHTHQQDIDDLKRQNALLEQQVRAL

SMILES: CCOc1ccc2nc3cc(/N=N/c4ccc(N)nc4N)ccc3c(N)c2c1 [MYCMI-6]
- binding to MAX (SPR) (MAX bHLHZip): negligible; also recorded: did not bind to MAX
- MYCN:MAX interaction (isPLA) (MYCN:MAX interaction): significantly inhibited
- expression of MYCN and MAX (western blot) (MYCN and MAX proteins): maintaining the expression
- GI50 ([1]; Burkitts lymphoma cell, Mutu, Daudi, ST486, read-out: average GI50, Burkitt's lymphoma cells): 0.5 µM
- lowest IC50/GI50 of tumor cell growth ([1]; neuroblastoma and Burkitt's lymphoma cells with deregulated MYCN/MYC, as low as): ≥ 0.5 µM
- IC50 for hTERT relative to MYC:MAX in vitro (hTERT): approximately 10 fold
- IC50 for HDM2 relative to MYC:MAX in vitro (HDM2): approximately 10 fold

Reference: article PMC6030159 (Scientific Reports, 2018)
